The results in this text go back to patent publication US20100004272A1, “Modulators of metabolism and the treatment of disorders related thereto” (ARENA PHARMACEUTICALS, INC., priority 2006, published 2010).

The target in data set [1] is T1, RUP3 receptor (Mus musculus, UniProt Q7TQP3).
T1 construct: expressed in transfected cells; host or cells: melanophores, electroporated
T1 sequence (Q7TQP3 1-335): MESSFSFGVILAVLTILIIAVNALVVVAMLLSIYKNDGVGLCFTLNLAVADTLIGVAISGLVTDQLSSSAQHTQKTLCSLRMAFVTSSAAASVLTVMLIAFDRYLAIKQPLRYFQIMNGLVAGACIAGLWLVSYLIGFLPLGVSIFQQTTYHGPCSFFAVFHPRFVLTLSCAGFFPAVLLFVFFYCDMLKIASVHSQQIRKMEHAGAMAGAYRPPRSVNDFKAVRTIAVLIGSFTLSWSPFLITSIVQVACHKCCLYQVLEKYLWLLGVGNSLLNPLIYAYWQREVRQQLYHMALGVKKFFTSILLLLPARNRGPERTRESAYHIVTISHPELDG
Nature of the data set: RUP3 dose response in melanophores (mouse RUP3). The format is cell-based. The method, then:
(§1) Melanophores are maintained in culture as reported by Potenza, M. N. and Lerner, M. R., in Pigment Cell Research, Vol. 5, 372-378, 1992 and transfected with the RUP3 expression vector (pCMV) using electroporation. Following electroporation, the transfected cells are plated into 96 well plates for the assay. The cells are then allowed to grow for 48 hours in order to both recover from the electroporation procedure and attain maximal receptor expression levels. On the assay day, the growth medium on the cells is replaced with serum-free buffer containing 10 nM melatonin. The melatonin acts via an endogenous Gi-coupled GPCR in the melanophores to lower intracellular cAMP levels. In response to lowered cAMP levels, the melanophores translocate their pigment to the center of the cell. The net effect of this is a significant decrease in the absorbance reading of the cell monolayer in the well, measured at […]. After a 1-hour incubation in melatonin, the cells become completely pigment-aggregated. At this point a baseline absorbance reading is collected. Serial dilutions of test compounds are then added to the plate and compounds that stimulate RUP3 produce increases in intracellular cAMP levels. […] The measured increase in absorbance compared to the baseline reading allows one to quantitate the degree of receptor stimulation and plot a dose-response curve.

Data set [2] has as its target T2, RUP3 receptor (Homo sapiens, UniProt Q8TDV5).
T2 construct: expressed in transfected cells; host or cells: melanophores (as per Potenza and Lerner 1992), electroporated
T2 sequence (Q8TDV5 1-335): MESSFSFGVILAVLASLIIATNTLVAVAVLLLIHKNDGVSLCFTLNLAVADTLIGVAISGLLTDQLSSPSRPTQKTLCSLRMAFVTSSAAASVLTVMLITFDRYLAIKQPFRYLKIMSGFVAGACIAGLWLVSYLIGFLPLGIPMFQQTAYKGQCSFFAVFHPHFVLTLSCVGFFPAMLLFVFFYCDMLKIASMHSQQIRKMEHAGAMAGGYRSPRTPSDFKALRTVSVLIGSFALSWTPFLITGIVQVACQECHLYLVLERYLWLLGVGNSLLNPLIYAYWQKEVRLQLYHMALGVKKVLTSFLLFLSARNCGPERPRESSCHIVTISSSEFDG
Nature of the data set: RUP3 dose response in melanophores (human RUP3). In kind it is cell-based. The method, then:
as §1

Data set [3] can be described thus: Rat dose-range PK study (dose escalation pharmacokinetics). The conditions noted are these: PO 3, 30, 300 mg/Kg, FIG. 1. In kind it is in vivo. The method, then: Male SD rats (250-300 g) were purchased from Charles River Laboratory; upon receipt, animals were placed under light-dark cycle (6:30 am-6:30 pm lights on) They were allowed ad libitum access to water and 4 pieces of food daily (Purina Meals Rodent Diet, Product Number 5001).
Compound formulations were prepared as following: The IV injection formulation was prepared in 20% hydroxypropyl-beta-cyclodextrin with concentration of 0.667 mg/mL. The PO formulations were prepared in 0.5% hydroxypropyl methylcellulose with concentrations of […]. The dosing volume for IV injection was 3 mL/Kg and for PO administration was 10 mL/Kg. Four rats were used for each dose group. […]
Plasma samples were prepared as follows. […] Calibration standards were typically prepared in the range of 2.0 ng/mL to 10 μg/mL with linear regression for quantitation. […]
Results were calculated by noncompartmental analysis using WinNonlin Pro version 3.1 based on plasma concentration-time profiles for individual animals. Plasma levels were determined as described above and the oral and intravenous area under the concentration vs. time curve (AUC was calculated using the linear trapezoidal rule up to the last measurable concentration and was then extrapolated to infinity) were compared to determine the % bioavailability (% oF) by the following formula: Dose (IV)*AUC (oral)/Dose (oral)*AUC (IV). […]

Data set [4] concerns Male Sprague Dawley rats. The experiment in a line: Oral glucose tolerance test (oGTT) in rats. The format is in vivo, rat. The following applies: fasted male Sprague Dawley rats, p.o. 30 min before dextrose 3 g/kg, doses 0.3, 3 or 30 mg/kg (dose of this value not stated), mean of six animals. The method, then: General Procedure—Oral Glucose tolerance test (oGTT)
Male Sprague Dawley rats (Harlan, San Diego, Calif.) weighing approximately 350-375 g were fasted for 16 hours and randomly grouped (n=6) to receive a RUP3 agonist at 0.3, 3 or 30 mg/kg. Compounds were delivered orally via a gavage needle (p.o., volume 2 mL/kg). At time 0, levels of blood glucose were assessed using a glucometer (Accu-Chek Advantage, Roche Diagnostics), and rats were administered either vehicle (20% hydroxypropyl-beta-cyclodextrin) or test compound. Thirty minutes after administration of test compound, levels of blood glucose were again assessed, and rats were administered dextrose orally at a dose of 3 g/kg. Blood glucose measurements were then taken 30 min, 60 min, and 120 min after this time.

The target of data set [5] is T3, RUP3 receptor (Rattus norvegicus, UniProt Q7TQN8).
T3 construct: expressed in transfected cells; host or cells: melanophores, electroporated
T3 sequence (Q7TQN8 1-468): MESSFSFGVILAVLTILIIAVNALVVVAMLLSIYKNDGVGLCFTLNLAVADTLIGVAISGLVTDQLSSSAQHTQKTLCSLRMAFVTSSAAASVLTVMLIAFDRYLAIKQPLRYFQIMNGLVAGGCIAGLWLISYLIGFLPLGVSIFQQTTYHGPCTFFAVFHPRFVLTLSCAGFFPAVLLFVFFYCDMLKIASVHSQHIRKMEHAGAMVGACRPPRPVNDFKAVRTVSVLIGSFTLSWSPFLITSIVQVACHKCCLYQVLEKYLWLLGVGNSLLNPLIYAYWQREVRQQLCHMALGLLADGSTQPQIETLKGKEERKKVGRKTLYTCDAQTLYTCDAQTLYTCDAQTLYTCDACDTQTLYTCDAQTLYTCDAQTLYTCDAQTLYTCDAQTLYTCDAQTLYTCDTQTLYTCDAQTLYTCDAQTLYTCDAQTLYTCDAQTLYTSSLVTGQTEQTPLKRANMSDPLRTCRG
Nature of the data set: RUP3 dose response in melanophores (rat RUP3). The format is cell-based. The method, then:
as §1

Data set [6] concerns the target T4, RUP3 receptor (Canis lupus familiaris, UniProt A0A8I3QZL6).
T4 sequence (A0A8I3QZL6 1-335): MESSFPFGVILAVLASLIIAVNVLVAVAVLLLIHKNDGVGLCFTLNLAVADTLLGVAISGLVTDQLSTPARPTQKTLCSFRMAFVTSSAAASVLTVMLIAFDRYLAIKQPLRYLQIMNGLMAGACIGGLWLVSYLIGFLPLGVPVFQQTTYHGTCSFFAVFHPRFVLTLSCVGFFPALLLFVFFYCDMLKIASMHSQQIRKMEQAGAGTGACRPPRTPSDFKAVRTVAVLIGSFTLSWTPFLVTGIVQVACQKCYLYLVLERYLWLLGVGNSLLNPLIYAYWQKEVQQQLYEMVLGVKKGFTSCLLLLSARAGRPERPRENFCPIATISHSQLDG
Nature of the data set: RUP3 dose response in melanophores (dog RUP3). The format is cell-based. The method, then: as §1

Usually EC50 stands for the concentration at which the effect is half-maximal. Low readings indicate an effect from little substance, high ones a need for much substance. As to `Cc1nc(S(C)(=O)=O)ccc1Nc1ncnc(OC2CCN(C(=O)OC(C)C)CC2)c1C` [Formula (I), 4-[6-(6-methanesulfonyl-2-methyl-pyridin-3-ylamino)-5-methyl-pyrimidin-4-yloxy]-piperidine-1-carboxylic acid isopropyl ester], the 50% effective concentration (EC50) in data set [1] came out at 43 nM; in data set [2], 2 nM; in data set [5] it was 42 nM; in data set [6], 8 nM. In data set [3], the “dose escalation pharmacokinetics (AUC vs. dose linearity)” value is given as “essentially linear dose escalation pharmacokinetics”. The “mean percent inhibition of glucose excursion” value in data set [4] came out at 38%.
